The subject of series [1] is HeLa (human cervical carcinoma) cells. The series can be described thus: MTT antiproliferative assay, HeLa. It counts as cell-based. The conditions noted are these: for IC50: mean of three independent determinations, read-out: Cytotoxicity IC50 HeLa. As to the method:
(§1) Melting points were determined on an X4 apparatus (Beijing Tech Instrument Co. Ltd., Beijing, China) and were uncorrected. The ^1H and ^13C NMR spectra were recorded in CDCl3 on a Bruker AV-600 spectrometer at working frequencies 600 and 150 MHz and a Bruker AV-300 spectrometer at working frequencies 300 and 75 MHz, respectively. Chemical shifts are expressed in parts per million (δ) values and coupling constants (J) in Hertz. Infrared spectra were measured with a Thermo Scientific Nicolet IS-10 Spectrophotometer (Thermo Scientific, America). HREIMS was measured on an Agilent 6210 TOFMS instrument (Agilent Technologies, America). The cell proliferation assay was undertaken by a MTT method using 96-well plates on a […] MK3 analysis spectrometer (Thermo Scientific, Shanghai, China).
(§2) The detailed procedure has been reported in our previous work.
(§3) The antiproliferative activities of all steroidal thiosemicarbazones and their Pt(II) metal complexes were determined in vitro on Bel 7404, HeLa, and HEK293T. […] The results are summarized as IC50 values in μM in Table 1.
(Tetrazolium assays rely on reduction of a dye to a coloured formazan, in cell work by metabolically active cells.)

Series [2] relates to Bel-7404 (human liver carcinoma) cells. The series can be described thus: MTT antiproliferative assay, Bel-7404. It counts as cell-based. The conditions noted are these: for IC50: mean of three independent determinations, read-out: Cytotoxicity IC50 Bel-7404. As to the method: as §1, §2, §3
Series [3] has as its system HEK293T (normal kidney epithelial cells). The series can be described thus: MTT antiproliferative assay, HEK293T. The series is classed as cell-based. The conditions noted are these: mean of three independent determinations, read-out: Cytotoxicity IC50 HEK293T. As to the method:
as §1, §2
(§4) The antiproliferative activities of all steroidal thiosemicarbazones and their Pt(II) metal complexes were determined in vitro on Bel 7404, HeLa, and HEK293T.

A short description of series [4]: MTT antiproliferative assay, HEK293T. The series is classed as cell-based. The note with it: human, HEK293T normal kidney epithelial cells, mean of three independent determinations, read-out: Cytotoxicity IC50 HEK293T. As for the experimental part: as §1, §2, §4
Setting [5] is: Homo sapiens, BEL-7404, MTT assay.

Read-outs that look alike come from different tables or passages of the source.

In turn, `CC12CCC3c4ccc(O)cc4CCC3C1CCC2=NNC(N)=S` (stereo not drawn) [Compound 2, 3β-Hydroxyestron-17-thiosemicarbazone] had a melting point of 254 to 256 °C. For the same compound, in series [1] (Homo sapiens, HeLa, MTT assay), the IC50 worked out at 34 µM. Also, the 50% inhibitory concentration (IC50) in series [2] (setting [5]) amounted to 19 µM.
For `CC12CCC3c4ccc(O)cc4CCC3C1CCC2=[N+]1NC(N)=[S+][Pt-2]1([Cl])[Cl]` (stereo not shown) [Compound 3, [PtL ^2 Cl 2]], the IC50 in series [3] is over 200 µM; in series [1] (MTT assay), 23 µM; in series [2] (MTT assay), 39 µM. Further, the “Cytotoxicity against HeLa cells (in words)” value in series [1] (MTT assay, verbal summary) is reported as “obvious cytotoxicity”. Moreover, in series [1] (ratio IC50 HEK293T versus IC50 HeLa), the “SI HeLa (Selectivity Index)” value is on record as over 8.7. Besides, the “Cytotoxicity against Bel 7404 cells (in words)” value in series [2] (MTT assay, verbal summary) is reported as “obvious cytotoxicity”. Moreover, the “SI Bel 7404 (Selectivity Index)” value in series [2] (ratio IC50 HEK293T versus IC50 Bel 7404) is listed as over 5.1.
As for `CC(=O)Oc1ccc2c(c1)CCC1C2CCC2(C)/C(=N/NC(N)=S)CCC12` (stereo not drawn) [Compound 5, 3β-Acetyloxyestron-17-thiosemicarbazone], the melting point was in the range of 248 to 249 °C. Also, the half-maximal inhibitory concentration (IC50) in series [4] was over 200 µM. For the same compound, in series [1] (Homo sapiens, HeLa, MTT assay), the 50% inhibitory concentration (IC50) amounted to 42 µM. The IC50 in series [2] (setting [5]) is over 200 µM.
Turning to `COC(=O)CCC(C)C1CCC2C3C(=O)CC4CC(=NNC(N)=S)CCC4(C)C3CCC12C` (stereo not shown) [Compound 8, Methyl 3-Thiosemicarbazonyl-7-oxochenodeoxycholicate], the melting point lay within 285 to 286 °C. In addition, the IC50 in series [4] was over 200 µM. Besides, the half-inhibitory concentration (IC50) in series [1] (Homo sapiens, HeLa, MTT assay) stood at 96 µM. The half-inhibitory concentration (IC50) in series [2] (setting [5]) was over 200 µM.
Turning to `COC(=O)CCC(C)C1CCC2C3C(O)CC4CC(=NNC(N)=S)CCC4(C)C3CCC12C` (stereo not shown) [Compound 10, Methyl 3-Thiosemicarbazonyl-7-hydroxychenodeoxycholicate], the IC50 in series [4] was over 200 µM; in series [1] (Homo sapiens, HeLa, MTT assay), 142 µM; in series [2] (setting [5]), over 200 µM.
In the case of `COC(=O)CCC(C)C1CCC2C3CCC4CC(=NNC(N)=S)CCC4(C)C3CC(=O)C12C` (stereo not shown) [Compound 13, Methyl 3-Thiosemicarbazonyl-12-oxo-7-deoxycholicate], the melting point was 125 to 127 °C. Further, the half-maximal inhibitory concentration (IC50) in series [4] is over 200 µM. The half-maximal inhibitory concentration (IC50) in series [1] (Homo sapiens, HeLa, MTT assay) is over 200 µM. In series [2] (setting [5]), the half-inhibitory concentration (IC50) was over 200 µM.

A word on the melting point: it is the temperature of the solid-liquid transition. The IC50 is the concentration that gives 50% inhibition.

Values taken from paper PMC4618117, “Synthesis and Antiproliferative Activity of Steroidal Thiosemicarbazone Platinum (Pt(II)) Complexes” (Bioinorganic Chemistry and Applications, 2015).
